Source: ChEMBL document CHEMBL1649359, “Izumiphenazines A-C: isolation and structure elucidation of phenazine derivatives from Streptomyces sp. IFM 11204” (2010)

Tests used:
Type in all cases: functional
AGS [1] = experiment: Induction of apoptosis in TRAIL-resistant human AGS cells assessed as decrease in cell viability at 40 uM after 24 hrs by fluorometric microculture cytotoxic assay in presence of TRAIL relative to in absence of TRAIL
AGS [2] = experiment: Induction of apoptosis in TRAIL-resistant human AGS cells assessed as decrease in cell viability at 30 uM after 24 hrs by fluorometric microculture cytotoxic assay in presence of TRAIL relative to in absence of TRAIL
AGS [3] = experiment: Induction of apoptosis in TRAIL-resistant human AGS cells assessed as decrease in cell viability at 20 uM after 24 hrs by fluorometric microculture cytotoxic assay in presence of TRAIL relative to in absence of TRAIL

With `O=C(O)c1cc2c(c3nc4c(O)cccc4nc13)[C@@H]1Cc3nc4cccc(O)c4nc3[C@@H](O)[C@@H]1O2` [IZUMIPHENAZINE A] the Activity (AGS [1]) was 78%.

In the case of `O=C1C[C@H](c2c(O)cc(C(=O)O)c3nc4cccc(O)c4nc23)Cc2nc3cccc(O)c3nc21` [IZUMIPHENAZINE B], the Activity (AGS [2]) is reported as 30%.

`CN(c1ccc(C(=O)O)cc1)c1cccc2nc3c(O)cccc3nc12` [IZUMIPHENAZINE C] was tested, and the Activity (AGS [3]) was 26%.
